Here are results for 19 compounds from patent US6323235A, “Benzene-condensed heterocyclic derivatives and their uses” (priority 1995, dated 2001).

Assay [1] relates to platelet aggregation induced by TXA2 agonist U-46619. As to the kind of experiment: Platelet Aggregation-inhibition Action 1 (U-46619-induced, platelet-rich plasma). The conditions noted are these: U-46619 1-4 μM final, PRP, compound added one minute before U-46619. The class given is cell-based. The method, then: Platelet Aggregation-inhibition Action 1
(§1) Blood collected from medial cubital vein is centrifuged at 800 rmp for 10 minutes and the upper portion of the resultant is collected as platelet-rich plasma (PRP). The PRP is dividedly poured into small test tubes and a TXA2 agonist U-46619 is added thereto (final concentration: 1-4 μM) so as to induce platelet aggregation. The degree of platelet aggregation is measured in terms of change in turbidity by a platelet aggregation measuring apparatus (Hematoracer, NIKO BIOSCIENCE). The compound is added one minute before the addition of U-46619 and the concentration of the compound at which the aggregation is inhibited by 50% is calculated as IC50 value.

Another assay concerns the target T1, TXA2 receptor (Oryctolagus cuniculus, UniProt Q6WQI8).
T1 sequence (Q6WQI8 1-233): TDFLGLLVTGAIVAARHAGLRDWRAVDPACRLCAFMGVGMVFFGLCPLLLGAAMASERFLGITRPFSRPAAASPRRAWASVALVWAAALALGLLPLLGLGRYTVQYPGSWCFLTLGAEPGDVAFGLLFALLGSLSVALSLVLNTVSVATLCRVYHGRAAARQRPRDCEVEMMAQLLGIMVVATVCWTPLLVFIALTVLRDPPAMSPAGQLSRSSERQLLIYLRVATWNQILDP
Description: TXA2 Receptor Binding Test 1 ([3H]SQ29548, washed rabbit platelets). Set-up: species or system New Zealand White rabbit. As to conditions: [3H]SQ29548 3 nM, rabbit washed platelets 10 mg/ml, 25° C., 60 minutes. The protocol:
TXA2 Receptor Binding Test 1
Blood from a New Zealand White rabbit is taken in a vessel containing ACD solution (prepared by dissolving 1.175 g of sodium citrate, 0.685 g of citric acid and 1 g of dextrose in 50 ml of distilled water) and centrifuged at 180×g for 10 minutes at room temperature to obtain platelet-rich plasma. The obtained platelet-rich plasma is centrifuged at […] at room temperature to precipitate platelets. The platelets are then suspended in 50 mM Tris-HCl buffer (pH 7.2, containing 0.154M of NaCl) and the suspension is centrifuged at 2800×g for 15 minutes at 4° C. These operations are repeated twice to prepare washed platelets and the concentration of the platelets are adjusted to a final concentration of 10 mg/ml (wet weight).
As the ligand of TXA2, tritium-labelled SQ29548 ([^3 H]SQ29548) is used. In the antagonism test, 20 μl of [^3 H]SQ29548 having a final concentration of 3 nM is added to 500 μl of a platelet suspension having a platelet concentration of 10 mg/ml and 2.6 μl of a solution of a test compound dissolved in an appropriate solvent is added thereto. After incubating the resulting mixture at 25° C. for 60 minutes, the mixture is filtered through a glass filter by the cell harvester method. After washing the filter with 50 mM Tris-HCl buffer (3×4 ml), the radioactivity of the filter is measured by a scintillation counter, thereby measuring the amount of the [^3 H]SQ29548 bound to platelets. In the saturation test, 20 μl of [^3 H]SQ29548 is added to a final concentration of 0.1-50 nM and 2.6 μl of BM13505 having a final concentration of 1 μM is added so as to check non-specific binding, followed by carrying out the binding test. The concentration of the test compound at which binding of [^3 H]SQ29548 is inhibited by 50% is determined as the IC50 value.
The results of the evaluation of the activities of the compounds of the present invention by this method are summarized d in Table 3.

The test system of assay [2] is platelet aggregation induced by ADP. As to the kind of experiment: Platelet Aggregation-Inhibition Action 2 (ADP-induced, platelet-rich plasma). The class given is cell-based. The conditions noted are these: ADP 1-3 μM final, PRP, compound added one minute before ADP. The method, then:
Platelet Aggregation-Inhibition Action 2
as §1, with “PRP).” for “(PRP).”, “ADP” for “a TXA2 agonist U-46619”, “1-3” for “1-4”, “Hematoracer,” for “(Hematoracer,”, “ADP” for “U-46619 and”

Structures are written as SMILES.

For the compound `Cc1oc2c(OCC(=O)O)cccc2c1CCS(=O)(=O)CCc1ccccc1` [Example 33, (3-(2-(2-phenylethylsulfonyl)ethyl)-2-methylbenzofuran-7-yloxy)acetic acid], the IC50 in assay [1] is 1100 nM; on TXA2 receptor it was 91.9 nM. The corresponding values for `O=C(O)COc1cccc2c(CNS(=O)(=O)CCCc3ccccc3)coc12` [Example 9, (3-((3-phenylpropylsulfonylamino)methyl)benzofuran-7-yloxy)acetic acid] are 300 nM and 4.46 nM.

`C[C@@H](COCc1coc2c(OCC(=O)O)cccc12)c1ccccc1` [Example 51, (R)-(3-((2-phenylpropyloxy)methyl)benzofuran-7-yloxy)acetic acid] had an IC50 at TXA2 receptor of 229 nM. `Cc1oc2c(OCC(=O)O)cccc2c1CCNS(=O)(=O)CCc1ccccc1` [Example 25, (3-(2-(2-phenylethylsulfonylamino)ethyl)-2-methylbenzofuran-7-yloxy)acetic acid]: the IC50 is 140 nM in assay [1] and 4.79 nM on TXA2 receptor. On the same counts, the results for `CC(C)c1oc2c(OCC(=O)O)cccc2c1CNS(=O)(=O)CCc1ccccc1` [Example 19, (3-(((2-phenylethyl)sulfonylamino)methyl)-2-isopropylbenzofuran-7-yloxy)acetic acid] are 1400 nM and 788 nM. For the compound `Cc1ccc(S(=O)(=O)NCCn2ccc3c(OCC(=O)O)cccc32)cc1` [Example 103], the results for the 50% inhibitory concentration (IC50) (in assay [1]; on TXA2 receptor) were 1300 nM and 3.09 nM, respectively. For the compound `Cc1oc2c(OCC(=O)O)cccc2c1CCSCCc1ccccc1` [Example 31, (3-(2-(2-phenylethylthio)ethyl)-2-methylbenzofuran-7-yloxy)acetic acid], the IC50 is 440 nM in assay [1], 265 µM in assay [2] and 51.3 nM on TXA2 receptor. The corresponding values for `Cc1oc2c(OCC(=O)O)cccc2c1CNS(=O)(=O)CCc1ccccc1` [Example 16, (3-(((2-phenylethyl)sulfonylamino)methyl)-2-methylbenzofuran-7-yloxy)aceticacid] are 500 nM, 403 µM and 54.5 nM.

In the case of `Cc1oc2c(OCC(=O)O)cccc2c1CNS(=O)(=O)Cc1ccccc1` [Example 15, Methyl (3-((benzylsulfonylamino)methyl)-2-methylbenzofuran-7-yloxy)acetic acid], the half-maximal inhibitory concentration (IC50) was 1000 nM in assay [1], 201 µM in assay [2] and 1100 nM on TXA2 receptor. Consider `O=C(O)COc1cccc2c1ccn2CCNS(=O)(=O)c1ccccc1` [Example 104, (1-(2-(phenylsulfonylamino)ethyl)indole-4-yloxy)acetic acid], for which the IC50 was 5100 nM in assay [1] and 26.7 nM at TXA2 receptor. On the same counts, the results for `Cc1oc2c(OCC(=O)O)cccc2c1CC[S+]([O-])CCc1ccccc1` (stereo not shown) [Example 32, (3-(2-(2-phenylethylsulfinyl)ethyl)-2-methylbenzofuran-7-yloxy)acetic acid] are 1600 nM and 569 nM. Take `O=C(O)COc1cccc2c(CCOCc3ccc(-c4ccccc4)cc3)coc12` [Example 46, (3-(2-(4-phenylbenzyloxy)ethyl)benzofuran-7-yloxy)acetic acid]: the IC50 on TXA2 receptor is 596 nM. In other words, the sub-micromolar range. On the same count and under the same terms, the result for `O=C(O)COc1cccc2c(CCOCC(=O)c3ccccc3)coc12` [Example 47, (3-(2-(2-oxo-2-phenylethoxy)ethyl)benzofuran-7-yloxy)acetic acid] reads 3670 nM; that for `O=C(O)COc1cccc2c(COC(Cc3ccccc3)Cc3ccccc3)coc12` [Example 53, (3-((1-benzyl-2-phenylethoxy)methyl)benzofuran-7-yloxy)acetic acid], 2020 nM.

Consider `Cc1oc2c(OCC(=O)O)cccc2c1CCNS(=O)(=O)Cc1ccccc1` [Example 24, (3-(2-(benzylsulfonylamino)ethyl)-2-methylbenzofuran-7-yloxy)acetic acid], for which the values for the IC50 (in assay [1]; on TXA2 receptor) were 88 nM and 18.6 nM, respectively.

On to `O=C(O)COc1cccc2c(CCOC(c3ccccc3)c3ccccc3)coc12` [Example 43, (3-(2-(diphenylmethoxy)ethyl)benzofuran-7-yloxy)acetate], for which the concentration for half-maximal inhibition (IC50) in assay [1] was 4000 nM; at TXA2 receptor it was 69.6 nM. Regarding `O=C(O)COc1cccc2c(CNS(=O)(=O)c3ccc4ccccc4c3)coc12` [Example 13], the IC50 was 7200 nM in assay [1] and 29.2 nM on TXA2 receptor. As for `Cc1oc2c(OCC(=O)O)cccc2c1CNS(=O)(=O)CCCc1ccccc1` [Example 17, (3-(((3-phenylpropyl)sulfonylamino)methyl)-2-methylbenzofuran-7-yloxy)acetic acid], the values for the IC50 (in assay [1]; at TXA2 receptor) were 140 nM and 1.92 nM, respectively. As for `Cc1oc2c(OCC(=O)O)cccc2c1CCON=C(c1ccccc1)c1ccccc1` [Example 35, (3-(2-(diphenylmethyleneaminoxy)ethyl)-2-methylbenzofuran-7-yloxy)acetic acid], the IC50 in assay [1] came to 4500 nM; in assay [2], 7.8 µM.
